# Reference: patent publication US20220226321A1, “INHIBITOR OF MNK FOR THE TREATMENT OF NEUROPATHIC PAIN” (Board of Regents, The University of Texas System, priority 2019, published 2022)
# Read-outs that look alike come from different tables or passages of the source.
# Tested on: Nav1.8-positive nociceptors
# Type: in vivo, mouse
# [1] = input transcriptome of whole DRG, day 10
compound,measurement,setting,value
CC(=O)O[C@H]1C(=O)[C@@]2(C)[C@H]([C@H](OC(=O)c3ccccc3)[C@]3(O)C[C@H](OC(=O)[C@H](O)[C@@H](NC(=O)c4ccccc4)c4ccccc4)C(C)=C1C3(C)C)[C@]1(OC(C)=O)CO[C@@H]1C[C@@H]2O [paclitaxel],Log2FC Mxd3,Nav1.8-TRAP after paclitaxel,1.905
same,Log2FC Ndufa4,Nav1.8-TRAP after paclitaxel,2.041
same,Log2FC Ndufa8,Nav1.8-TRAP after paclitaxel,1.699
same,Log2FC Ndufaf7,Nav1.8-TRAP after paclitaxel,2.358
same,Log2FC Ndufs8,Nav1.8-TRAP after paclitaxel,2.837
same,Log2FC Nedd9,Nav1.8-TRAP after paclitaxel,3.023
same,Log2FC Ngfr,Nav1.8-TRAP after paclitaxel,1.805
same,Log2FC Nipsna p3b,Nav1.8-TRAP after paclitaxel,2.057
same,Log2FC Nme2,Nav1.8-TRAP after paclitaxel,3.66
same,Log2FC Ntrk1,Nav1.8-TRAP after paclitaxel,2.2
same,Log2FC Omg,Nav1.8-TRAP after paclitaxel,2.194
same,Log2FC PIpp1,Nav1.8-TRAP after paclitaxel,2.874
same,Log2FC Pafah2,Nav1.8-TRAP after paclitaxel,2.283
same,Log2FC Pcbd2,Nav1.8-TRAP after paclitaxel,2.687
same,Log2FC Pcdhb9,Nav1.8-TRAP after paclitaxel,2.519
same,Log2FC Pex11b,Nav1.8-TRAP after paclitaxel,3.628
same,Log2FC Pgrmc2,Nav1.8-TRAP after paclitaxel,1.76
same,Log2FC Phpt1,Nav1.8-TRAP after paclitaxel,1.814
same,Log2FC Pnrc2,Nav1.8-TRAP after paclitaxel,1.668
same,Log2FC Polr1c,Nav1.8-TRAP after paclitaxel,2.731
same,Log2FC Polr2j,Nav1.8-TRAP after paclitaxel,3.518
same,Log2FC Ppdpf,Nav1.8-TRAP after paclitaxel,2.038
same,Log2FC Ppp1ca,Nav1.8-TRAP after paclitaxel,2.094
same,Log2FC Praf2,Nav1.8-TRAP after paclitaxel,2.335
same,Log2FC Prdx5,Nav1.8-TRAP after paclitaxel,2.174
same,Log2FC Prg4,Nav1.8-TRAP after paclitaxel,3.247
same,Log2FC Prkrir,Nav1.8-TRAP after paclitaxel,2.096
same,Log2FC Prkx,Nav1.8-TRAP after paclitaxel,2.201
same,Log2FC Prm1,Nav1.8-TRAP after paclitaxel,1.732
same,Log2FC Psma2,Nav1.8-TRAP after paclitaxel,2.07
same,Log2FC Ptdss1,Nav1.8-TRAP after paclitaxel,1.681
same,Log2FC Ptp4a3,Nav1.8-TRAP after paclitaxel,2.248
same,Log2FC Ptprf,Nav1.8-TRAP after paclitaxel,1.742
same,Log2FC Pxdc1,Nav1.8-TRAP after paclitaxel,3.578
same,Log2FC Rad9a,Nav1.8-TRAP after paclitaxel,1.786
same,Log2FC Rbc1,Nav1.8-TRAP after paclitaxel,1.841
same,Log2FC Rcn3,Nav1.8-TRAP after paclitaxel,2.085
same,Log2FC Rd54l,Nav1.8-TRAP after paclitaxel,4.965
same,Log2FC Rft1,Nav1.8-TRAP after paclitaxel,3.183
same,Log2FC Rho,Nav1.8-TRAP after paclitaxel,5.352
same,Log2FC Rnase4,Nav1.8-TRAP after paclitaxel,2.356
same,Log2FC Rnh1,Nav1.8-TRAP after paclitaxel,2.827
same,Log2FC Romo1,Nav1.8-TRAP after paclitaxel,2.002
same,Log2FC Rpl10a,Nav1.8-TRAP after paclitaxel,2.764
same,Log2FC Rpl23a,Nav1.8-TRAP after paclitaxel,1.728
same,Log2FC Rpl37,Nav1.8-TRAP after paclitaxel,2.314
same,Log2FC Rpl39,Nav1.8-TRAP after paclitaxel,2.279
same,Log2FC Rprm,Nav1.8-TRAP after paclitaxel,1.703
same,Log2FC Rps2,Nav1.8-TRAP after paclitaxel,2.442
same,Log2FC Rps29,Nav1.8-TRAP after paclitaxel,2.994
same,Log2FC Rraga,Nav1.8-TRAP after paclitaxel,1.845
same,Log2FC Rtn4rl1,Nav1.8-TRAP after paclitaxel,2.407
same,Log2FC Rwdd1,Nav1.8-TRAP after paclitaxel,2.511
same,Log2FC Sag,Nav1.8-TRAP after paclitaxel,1.948
same,Log2FC Scpep1,Nav1.8-TRAP after paclitaxel,2.923
same,Log2FC Sdhb,Nav1.8-TRAP after paclitaxel,3.236
same,Log2FC Sec14I1,Nav1.8-TRAP after paclitaxel,2.129
same,Log2FC Serp2,Nav1.8-TRAP after paclitaxel,2.805
same,Log2FC Serpina3n,Nav1.8-TRAP after paclitaxel,2.549
same,Log2FC Serping1,Nav1.8-TRAP after paclitaxel,3.002
same,Log2FC Shisa5,Nav1.8-TRAP after paclitaxel,2.137
same,Log2FC Slc3a2,Nav1.8-TRAP after paclitaxel,2.841
same,Log2FC Slc6a15,Nav1.8-TRAP after paclitaxel,1.979
same,Log2FC Slc25a3,Nav1.8-TRAP after paclitaxel,2.641
same,Log2FC Slc30a6,Nav1.8-TRAP after paclitaxel,2.809
same,Log2FC Slc48a1,Nav1.8-TRAP after paclitaxel,1.977
same,Log2FC Smdt1,Nav1.8-TRAP after paclitaxel,2.016
same,Log2FC Smug1,Nav1.8-TRAP after paclitaxel,4.754
same,Log2FC Snrpg,Nav1.8-TRAP after paclitaxel,1.657
same,Log2FC Soat2,Nav1.8-TRAP after paclitaxel,4.066
same,Log2FC Sod1,Nav1.8-TRAP after paclitaxel,1.77
same,Log2FC Sorbs1,Nav1.8-TRAP after paclitaxel,2.942
same,Log2FC Spink10,Nav1.8-TRAP after paclitaxel,3.169
same,Log2FC Synb,Nav1.8-TRAP after paclitaxel,3.1
same,Log2FC Syngr3,Nav1.8-TRAP after paclitaxel,1.701
same,Log2FC Tagln3,Nav1.8-TRAP after paclitaxel,2.101
same,Log2FC Tdrp,Nav1.8-TRAP after paclitaxel,2.335
same,Log2FC Tgm2,Nav1.8-TRAP after paclitaxel,2.739
same,Log2FC Thoc7,Nav1.8-TRAP after paclitaxel,2.07
same,Log2FC Timm8b,Nav1.8-TRAP after paclitaxel,2.815
same,Log2FC Timm9,Nav1.8-TRAP after paclitaxel,1.838
same,Log2FC Tmem9b,Nav1.8-TRAP after paclitaxel,1.818
same,Log2FC Tmem14c,Nav1.8-TRAP after paclitaxel,1.657
same,Log2FC Tmem53,Nav1.8-TRAP after paclitaxel,2.851
same,Log2FC Tmem106b,Nav1.8-TRAP after paclitaxel,1.891
same,Log2FC Tmem120b,Nav1.8-TRAP after paclitaxel,3.033
same,Log2FC Tmem126a,Nav1.8-TRAP after paclitaxel,2.744
same,Log2FC Tmem129,Nav1.8-TRAP after paclitaxel,2.655
same,Log2FC Tnfaip8l3,Nav1.8-TRAP after paclitaxel,4.38
same,Log2FC Tonsl,Nav1.8-TRAP after paclitaxel,1.762
same,Log2FC Tpgs2,Nav1.8-TRAP after paclitaxel,2.076
same,Log2FC Tram1,Nav1.8-TRAP after paclitaxel,2.174
same,Log2FC Trap1,Nav1.8-TRAP after paclitaxel,2.447
same,Log2FC Trim11,Nav1.8-TRAP after paclitaxel,2.395
same,Log2FC Trpv1,Nav1.8-TRAP after paclitaxel,1.657
same,Log2FC Tspan17,Nav1.8-TRAP after paclitaxel,2.337
same,Log2FC Tubb4b,Nav1.8-TRAP after paclitaxel,2.111
same,Log2FC Tyro3,Nav1.8-TRAP after paclitaxel,2.927
same,Log2FC Ucp1,Nav1.8-TRAP after paclitaxel,3.795
same,Log2FC Ufsp2,Nav1.8-TRAP after paclitaxel,1.927
same,Log2FC Uqcrc2,Nav1.8-TRAP after paclitaxel,3.514
same,Log2FC Uqcrq,Nav1.8-TRAP after paclitaxel,1.825
same,Log2FC Use1,Nav1.8-TRAP after paclitaxel,1.748
same,Log2FC Usmg5,Nav1.8-TRAP after paclitaxel,1.798
same,Log2FC Vezf1,Nav1.8-TRAP after paclitaxel,1.933
same,Log2FC Wbp2,Nav1.8-TRAP after paclitaxel,1.689
same,Log2FC Wdr35,Nav1.8-TRAP after paclitaxel,2.68
same,Log2FC ll15ra,Nav1.8-TRAP after paclitaxel,3.551
same,Log2FC mt-Nd1,Nav1.8-TRAP after paclitaxel,1.74
same,normalized TPM for the Rraga mRNA,TRAP fraction,3.6±0.51
same,increase in number of normalized reads mapping to the Rraga mRNA,TRAP-seq after paclitaxel treatment,3.5 fold
same,number of genes down regulated,TRAP-seq data set,222
same,number of genes up-regulated,TRAP-seq data set,230
same,Log2FC Med6,"gene Med6, upregulated in Nav1.8-TRAP after paclitaxel",2.473
same,Log2FC Mien1,"gene Mien1, upregulated in Nav1.8-TRAP after paclitaxel",1.847
same,Log2FC Mmd,"gene Mmd, upregulated in Nav1.8-TRAP after paclitaxel",2.026
same,Log2FC Mob1a,"gene Mob1a, upregulated in Nav1.8-TRAP after paclitaxel",2.683
same,Log2FC Mob3b,"gene Mob3b, upregulated in Nav1.8-TRAP after paclitaxel",2.179
same,Log2FC Ythdf2,"gene Ythdf2, upregulated in Nav1.8-TRAP after paclitaxel",1.866
same,Log2FC Ywhaq,"gene Ywhaq, upregulated in Nav1.8-TRAP after paclitaxel",1.837
same,Log2FC Zfp386,"gene Zfp386, upregulated in Nav1.8-TRAP after paclitaxel",3.022
same,Log2FC Zfp467,"gene Zfp467, upregulated in Nav1.8-TRAP after paclitaxel",2.147
same,Log2FC Zyx,"gene Zyx, upregulated in Nav1.8-TRAP after paclitaxel",2.08
same,normalized TPM for the Rraga mRNA,input fraction,2.04±0.17
same,number of genes down-regulated,[1],1
same,number of genes up-regulated,[1],4
same,Log2FC Stx2,"mouse, in vivo",1.896
